For orientation: IC50 means the concentration at which inhibition is half-maximal. Read a low IC50 as greater potency in that assay. As usually defined, the melting point is the temperature of the solid-liquid transition.

Where two headings read alike, the source gives them in different places.

This passage reports IC50 and melting point results from patent publication US20070167452A1, “Therapeutic amide derivatives” (PFIZER, INC., priority 2004, published 2007).

The target in data set [1] is HERG potassium channel (Homo sapiens, UniProt Q12809). In words: Inhibition at HERG potassium channel (prior-art compound). Particulars: background statement on prior-art compound of WO 0208928.
Chain of HERG potassium channel (Q12809 whole entry): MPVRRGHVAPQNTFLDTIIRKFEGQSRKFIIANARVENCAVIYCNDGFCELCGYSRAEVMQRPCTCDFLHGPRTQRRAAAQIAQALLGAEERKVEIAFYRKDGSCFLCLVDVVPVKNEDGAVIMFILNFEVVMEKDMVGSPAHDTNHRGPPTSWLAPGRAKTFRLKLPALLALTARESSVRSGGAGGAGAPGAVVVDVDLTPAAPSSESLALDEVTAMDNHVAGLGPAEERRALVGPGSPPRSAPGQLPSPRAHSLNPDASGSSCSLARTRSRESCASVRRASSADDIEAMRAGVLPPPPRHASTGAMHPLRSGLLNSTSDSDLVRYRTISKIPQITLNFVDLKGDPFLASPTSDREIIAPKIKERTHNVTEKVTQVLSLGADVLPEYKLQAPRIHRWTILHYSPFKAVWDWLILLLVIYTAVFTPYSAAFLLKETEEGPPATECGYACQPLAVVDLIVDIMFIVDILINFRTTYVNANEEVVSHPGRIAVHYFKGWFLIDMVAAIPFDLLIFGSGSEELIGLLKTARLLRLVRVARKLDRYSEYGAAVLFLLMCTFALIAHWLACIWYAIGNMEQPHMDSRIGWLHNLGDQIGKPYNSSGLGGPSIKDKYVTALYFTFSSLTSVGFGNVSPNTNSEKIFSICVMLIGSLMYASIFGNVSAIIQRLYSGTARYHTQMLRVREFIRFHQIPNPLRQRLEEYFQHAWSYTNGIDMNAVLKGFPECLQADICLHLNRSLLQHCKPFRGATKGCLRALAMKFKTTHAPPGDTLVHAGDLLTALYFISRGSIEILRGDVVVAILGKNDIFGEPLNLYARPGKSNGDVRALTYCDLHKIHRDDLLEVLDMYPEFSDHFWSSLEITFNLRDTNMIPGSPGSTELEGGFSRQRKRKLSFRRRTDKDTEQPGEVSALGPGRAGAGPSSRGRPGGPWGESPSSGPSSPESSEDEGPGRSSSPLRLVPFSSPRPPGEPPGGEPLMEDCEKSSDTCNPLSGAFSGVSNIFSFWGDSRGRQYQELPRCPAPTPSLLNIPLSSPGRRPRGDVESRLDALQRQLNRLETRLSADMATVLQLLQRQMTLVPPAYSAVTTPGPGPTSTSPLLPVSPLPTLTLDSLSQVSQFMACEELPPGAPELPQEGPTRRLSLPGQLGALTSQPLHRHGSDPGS
Data set [2] concerns the target T1, NR2B receptor (Rattus norvegicus, UniProt P35439+Q00960).
T1 construct: Membranes were prepared by homogenization of forebrain of male CD rats; from tissue; host or cells: forebrain of male CD rats (P2 membrane)
Briefly: NR2B Binding Assay. To be noted: forebrain P2 membranes of male CD rats; 5 nM [3H] NR2B ligand.

Data set [3] concerns the target T2, Human HERG (Homo sapiens, UniProt Q12809).
Experimental: (§1) Human HERG transfected HEK293S cells were prepared and grown in-house. The collected cells were suspended in 50 mM Tris-HCl (pH 7.4 at 4° C.) and homogenized using a hand held Polytron PT 1200 disruptor set at full power for 20 sec on ice. The homogenates were centrifuged at 48,000×g at 4° C. for 20 min. The pellets were then resuspended, homogenized, and centrifuged once more in the same manner. The final pellets were resuspended in an appropriate volume of 50 mM Tris-HCl, 10 mM KCl, 1 mM MgCl2 (pH 7.4 at 4° C.), homogenized, aliquoted and stored at −80° C. until use. An aliquot of membrane fractions was used for protein concentration determination using BCA protein assay kit (PIERCE) and ARVOsx plate reader (Wallac).
(§2) Binding assays were conducted in a total volume of 200 μl in 96-well plates. Twenty μl of test compounds were incubated with 20 μl of [^3H]-dofetilide (Amersham, final 5 nM) and 160 μl of membrane homogenate (25 μg protein) for 60 minutes at room temperature. Nonspecific binding was determined by 10 μM dofetilide at the final concentration. Incubation was terminated by rapid vacuum filtration over 0.5% presoaked GF/B Betaplate filter using Skatron cell harvester with 50 mM Tris-HCl, 10 mM KCl, 1 mM MgCl2, pH 7.4 at 4° C. The filters were dried, put into sample bags and filled with Betaplate Scint. Radioactivity bound to filter was counted with Wallac Betaplate counter.
The target in data set [4] is T2, Human HERG. In words: Human Dofetilide Binding Assay.
Experimental: as §1, §2

T1 sequence (Q00960 27-1482, other chains not shown): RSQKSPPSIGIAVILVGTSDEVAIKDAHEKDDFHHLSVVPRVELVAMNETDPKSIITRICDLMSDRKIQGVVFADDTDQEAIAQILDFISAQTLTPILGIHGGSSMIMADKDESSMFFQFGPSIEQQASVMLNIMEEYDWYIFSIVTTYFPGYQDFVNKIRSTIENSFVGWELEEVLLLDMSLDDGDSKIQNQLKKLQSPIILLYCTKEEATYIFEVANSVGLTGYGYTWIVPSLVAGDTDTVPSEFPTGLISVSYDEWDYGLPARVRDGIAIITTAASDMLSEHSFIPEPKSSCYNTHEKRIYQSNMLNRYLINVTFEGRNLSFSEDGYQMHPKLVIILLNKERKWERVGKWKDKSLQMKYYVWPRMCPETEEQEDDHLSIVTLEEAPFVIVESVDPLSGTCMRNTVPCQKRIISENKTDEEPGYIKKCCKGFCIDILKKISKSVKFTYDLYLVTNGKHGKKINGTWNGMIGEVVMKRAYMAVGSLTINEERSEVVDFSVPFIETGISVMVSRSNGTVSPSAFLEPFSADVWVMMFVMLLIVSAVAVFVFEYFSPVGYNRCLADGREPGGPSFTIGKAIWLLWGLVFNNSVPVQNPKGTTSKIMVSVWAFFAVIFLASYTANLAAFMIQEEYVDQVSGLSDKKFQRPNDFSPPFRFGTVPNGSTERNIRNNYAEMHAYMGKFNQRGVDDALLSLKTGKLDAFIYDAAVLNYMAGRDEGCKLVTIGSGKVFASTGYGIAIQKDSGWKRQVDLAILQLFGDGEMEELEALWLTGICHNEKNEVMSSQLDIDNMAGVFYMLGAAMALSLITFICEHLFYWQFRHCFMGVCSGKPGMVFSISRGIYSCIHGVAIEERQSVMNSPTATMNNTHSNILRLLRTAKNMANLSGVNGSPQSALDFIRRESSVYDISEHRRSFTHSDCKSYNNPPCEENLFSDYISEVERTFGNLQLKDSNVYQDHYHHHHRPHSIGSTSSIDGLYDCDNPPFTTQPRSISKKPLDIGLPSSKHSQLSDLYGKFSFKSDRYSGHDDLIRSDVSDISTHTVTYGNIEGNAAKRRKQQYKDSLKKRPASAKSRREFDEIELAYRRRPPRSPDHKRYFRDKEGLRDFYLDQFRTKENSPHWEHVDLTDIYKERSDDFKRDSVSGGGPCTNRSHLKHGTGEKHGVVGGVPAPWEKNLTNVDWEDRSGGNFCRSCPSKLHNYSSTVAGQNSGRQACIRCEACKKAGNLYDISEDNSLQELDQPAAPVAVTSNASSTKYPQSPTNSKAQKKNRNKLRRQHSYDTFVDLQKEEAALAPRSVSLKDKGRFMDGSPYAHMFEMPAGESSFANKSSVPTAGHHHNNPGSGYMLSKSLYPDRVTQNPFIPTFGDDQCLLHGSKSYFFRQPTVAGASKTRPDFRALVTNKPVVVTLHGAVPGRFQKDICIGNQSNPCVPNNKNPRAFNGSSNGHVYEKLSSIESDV
T2 sequence (Q12809 whole entry): as the sequence (Q12809 whole entry) above

In data set [1], `O=C(NCC1CCN(CCCc2ccccc2)CC1)c1ccc(O)cc1` [Compound (i)] returned an IC50 of less than 3 µM.

`O=C(NCC1(O)CCC(COCc2cccc(F)c2)CC1)c1ccc(O)c(F)c1` (stereo not drawn) [Example 50, 3-Fluoro-N-[(trans-4-{[(3-fluorobenzyl)oxy]methyl}-1-1-hydroxycyclohexyl)methyl]-hydroxybenzamide]: the figures for the IC50 in data set [2] and in data set [3] were 0.0275 µM and more than 100 µM, respectively.

`O=C(NC[C@]1(O)CC[C@H](CCOc2ccccc2F)CC1)c1cn[nH]c1` [Example 56, N-({trans-4-[2-(2-Fluorophenoxy)ethyl]-1-hydroxycyclohexyl}methyl)-1H-pyrazole-4-carboxamide] yielded a melting point of 175.1 °C. The compound further registered an IC50 in data set [2] of 0.0302 µM. For the same compound, the IC50 in data set [4] was more than 100 µM.

Compound `O=C(NC[C@]1(O)CC[C@H](COCc2ccccc2)CC1)c1ccc(O)c(F)c1` [Example 60, N-({trans-4-[(Benzyloxy)methyl]-1-hydroxycyclohexyl}methyl)-3-fluoro-4-hydoxybenzamide] registered a melting point of 162.5 °C. The compound further yielded an IC50 in data set [2] of 0.0182 µM. This compound returned an IC50 in data set [4] of more than 100 µM.

On to `O=C(NC[C@]1(O)CC[C@H](COc2ccccc2)CC1)c1ccc(O)c(F)c1` [Example 62, 3-Fluoro-4-hydroxy-N-{[trans-1-hydroxy-4-(phenoxymethyl)cyclohexyl]methyl}benzamide], for which the melting point was 183.5 °C. In data set [2], the IC50 was found to be 0.0091 µM. This compound had an IC50 in data set [4] of more than 30 µM.

For the compound `O=C(NC[C@]1(O)CC[C@H](CCOc2ccccc2)CC1)c1ccc(O)c(F)c1` [Example 63, 3-Fluoro-4-hydroxy-N-{[trans-1-hydroxy-4-(2-phenoxyethyl)cyclohexyl]methyl}benzamide], the melting point came out at 164 °C. The compound also had an IC50 in data set [2] of 0.0062 µM. This compound displayed an IC50 in data set [4] of more than 30 µM.

`O=C(NC[C@]1(O)CC[C@H](COCc2ccc(F)cc2)CC1)c1ccc(O)c(F)c1` [Example 64, 3-Fluoro-N-[(trans-4-{[(4-fluorobenzyl)oxy]methyl}-1-hydroxycyclohexyl)methyl]-4-hydroxybenzamide] gave a melting point of 155.9 °C. For the same compound, the IC50 in data set [2] stood at 0.0265 µM. Moreover, the IC50 in data set [4] is more than 100 µM.

On to `O=C(NC[C@]1(O)CC[C@H](COc2ccc(F)cc2)CC1)c1ccc(O)c(F)c1` [Example 66, 3-Fluoro-N-({trans-4-[(4-fluorophenoxy)methyl]-1-hydroxycyclohexyl}methyl)-4-hydroxybenzamide], for which the melting point is 181.6 °C. This compound came in with an IC50 in data set [2] of 0.0126 µM. In data set [4], this compound yielded an IC50 of more than 100 µM.

`Cc1ccc(OC[C@H]2CC[C@@](O)(CNC(=O)c3ccc(O)cc3)CC2)nc1` [Example 67, 4-Hydroxy-N-[(trans-1-hydroxy-4-{[(5-methylpyridin-2-yl)oxy]methyl}cyclohexyl)methyl]benzamide] registered a melting point of 196.2 °C. This compound also came in with an IC50 in data set [2] of 0.0169 µM. In data set [4], this compound came in with an IC50 of more than 30 µM.

Regarding `O=C(NC[C@H]1CC[C@@H](OCCc2ccccc2)CC1)c1ccc(O)nc1` [Example 71, 6-Hydroxy-N-{[cis-4-(2-phenethoxy)cyclohexyl]methyl}nicotinamide], the IC50 was 0.0071 µM in data set [2] and more than 100 µM in data set [3].

On to `O=C(NC[C@H]1CC[C@@H](COc2ccccc2)CC1)c1cn[nH]c1` [Example 73, N-{[cis-4-(Phenoxymethyl)cyclohexyl]methyl}-1H-pyrazole-4-carboxamide], for which the melting point was found to be 150.1 °C. Moreover, the IC50 in data set [2] was found to be 0.0154 µM. In addition, the IC50 in data set [4] is more than 30 µM.
